Test results from publication PMC11466185, “Mechanisms and efficacy of small molecule latency-promoting agents to inhibit HIV reactivation ex vivo” (JCI Insight, 2024).
“Also recorded” adds a separate entry of the source.

Tested on: PolyA HIV RNA in the supernatant
Test: Supernatant viral RNA (polyadenylated HIV RNA, RT-ddPCR) at day 6 after T cell activation
Assay type: cell-based
Conditions: for Polyadenylated HIV RNA in supernatant (Fig 5, Fig S6B) / Polyadenylated HIV RNA in supernatant (Fig 5): day 6; for Viral RNA in supernatant (PolyA HIV RNA), median relative to activated DMSO: day 6 after anti-CD3/CD28 activation, Figure 5
Procedure: PBMCs were cultured in the presence of individual drugs in DMSO or DMSO alone as control, activated (anti-CD3/CD28), and assessed for levels of PolyA HIV RNA in the supernatant at day 6.
Each drug was tested in PBMCs from 6 ART-suppressed study participants (except for triptolide, n = 5). PBMCs were aliquoted into wells at 6 × 10^6 cells/well. After activation, the cells were cultured with antiretrovirals in the presence of individual drugs in DMSO or DMSO alone as control. All conditions were tested in the presence of CD3/28 T cell–activating beads, except for the unactivated DMSO condition. After 6 days, RNA was extracted from the culture supernatant. Polyadenylated HIV RNA in the supernatant was quantified by RT-ddPCR, expressed as copies/mL, and then normalized to the levels of the activated DMSO (% of activated DMSO). Medians and IQR are presented, as well as the individual values per study participant in different colors. Comparisons were performed using Wilcoxon’s signed-rank test.
For quantification of cell-associated HIV transcripts, PBMCs were harvested either after 24 hours or after 6 days. The cell viabilities were measured by trypan blue staining; then the cells were pelleted by centrifuging at 300g for 6 minutes and stored at –80°C. For quantification of virion-associated HIV RNA, cell culture supernatant was collected from 6 × 10^6 PBMCs that were treated and activated for 6 days as described above. Residual cells and cellular debris were subsequently removed from the supernatant by differential centrifugation (300g for 6 minutes, then 20,000g for 10 minutes), and the supernatant was stored at –80°C.
Total cellular DNA and RNA were extracted in parallel using Trireagent (Molecular Research Center) according to the manufacturer’s instructions, except for study participants 2147 and 2461 (Figure 4), for whom DNA and RNA were extracted using the QIAGEN AllPrep DNA/RNA/miRNA Universal Kit with on-column DNase I treatment of the RNA and the manufacturer’s modification to enhance recovery of short transcripts. RNA and DNA concentrations were measured using UV spectrophotometry (NanoDrop One, Thermo Fisher Scientific). Total initiated HIV (TAR) transcripts were quantified by a 3-step polyadenylation RT-ddPCR as described previously ([8], [84]). HIV 5′ elongated (LLTR), midtranscribed (Pol), completed (PolyA), and multiply spliced (TatRev) transcripts were quantified by a 2-step RT-ddPCR as previously described ([8]). The levels of each HIV transcript were normalized to 1 μg of total cellular RNA and expressed as a percentage of the (activated) DMSO control. To quantify virion-associated RNA in supernatant, RNA was extracted from 400 μL supernatant using Trireagent-LS (Molecular Research Center) according to the manufacturer’s instructions. Levels of U3-polyadenylated HIV RNA were measured in the supernatant by RT-ddPCR, normalized to copies/mL, and expressed as a percentage of the activated DMSO. For measuring the HIV infection frequency at day 6, the HIV DNA U3-U5 LTR region was quantified by using ddPCR as described previously ([8]). HIV DNA copies were normalized to cell numbers according to the mass of DNA input per well (calculated from the DNA concentration and input volume) ([85]).

Molecule | Polyadenylated HIV RNA in supernatant (Fig 5, Fig S6B) (study participant 150b) | Polyadenylated HIV RNA in supernatant (Fig 5) (study participant 156) | Polyadenylated HIV RNA in supernatant (Fig 5) (study participant 163) | Polyadenylated HIV RNA in supernatant (Fig 5) (study participant 2027) | Polyadenylated HIV RNA in supernatant (Fig 5) (study participant 2147b) | Polyadenylated HIV RNA in supernatant (Fig 5) (study participant 2161) | Polyadenylated HIV RNA in supernatant (Fig 5) (study participant 2747) | Viral RNA in supernatant (PolyA HIV RNA), median relative to activated DMSO | Polyadenylated HIV RNA in supernatant (Fig 5) (study participant 2256) | Polyadenylated HIV RNA in supernatant (Fig 5) (study participant 5557) | Polyadenylated HIV RNA in supernatant (Fig 5) (study participant 2750) | Polyadenylated HIV RNA in supernatant (Fig 5) (study participant 150a) | Polyadenylated HIV RNA in supernatant (Fig 5, Fig S6B) (study participant 1713)
CCc1cnn2c(NCc3ccc[n+]([O-])c3)cc(N3CCCC[C@H]3CCO)nc12 [dinaciclib] | 11.52 % of activated DMSO | 0 % of activated DMSO | 133.94 % of activated DMSO | 0 % of activated DMSO | 0 % of activated DMSO | 4.65 % of activated DMSO | 23.64 % of activated DMSO | – | – | – | – | – | –
CO[C@H]([C@@H](C)[C@H]1O[C@]1(C)C[C@H](C)/C=C/C=C(\C)[C@H]1O[C@@H](CC(=O)O)CC[C@@H]1C)[C@@H](C)O [herboxidiene] | 67.27 % of activated DMSO | – | – | 240.24 % of activated DMSO | 0 % of activated DMSO | 4.65 % of activated DMSO | – | tended to reduce | 1.61 % of activated DMSO | 42.05 % of activated DMSO | – | – | –
CC(C)[C@]12O[C@H]1[C@@H]1O[C@]13[C@]1(O[C@H]1C[C@H]1C4=C(CC[C@@]13C)C(=O)OC4)[C@@H]2O [triptolide] | 0 % of activated DMSO | – | – | – | 0 % of activated DMSO | – | – | 0.0% | 2.15 % of activated DMSO | 0 % of activated DMSO | 0 % of activated DMSO | – | –
CC(=O)N[C@@H]1CCC[C@H](C(=O)Nc2cc(-c3cnn4c3CC(C)(C)C4)c(Cl)cn2)C1 [AZD4573] | – | 3.19 % of activated DMSO | 90.51 % of activated DMSO | 0 % of activated DMSO | 0.7 % of activated DMSO | 0 % of activated DMSO | 17.73 % of activated DMSO | 1.9% | – | – | 0 % of activated DMSO | 27.84 % of activated DMSO | –
mithramycin A | 2.42 % of activated DMSO | – | – | – | 0 % of activated DMSO | – | – | tended to reduce; also recorded: inhibited the production of viral RNA in supernatant in 5 out of 6 study participants | 2.15 % of activated DMSO | 0 % of activated DMSO | – | – | 2.06 % of activated DMSO
C=CCNC1=C2C[C@@H](C)C[C@H](OC)[C@H](O)[C@@H](C)/C=C(\C)[C@H](OC(N)=O)[C@@H](OC)/C=C\C=C(/C)C(=O)NC(=CC1=O)C2=O [tanespimycin] | 0 % of activated DMSO | – | – | – | 0 % of activated DMSO | – | – | – | 2.15 % of activated DMSO | 0 % of activated DMSO | 0 % of activated DMSO | – | 0 % of activated DMSO
CNc1ccc([N+](=O)[O-])c(Nc2ccc3[nH]ncc3c2)n1 [KRIBB11] | – | 18.79 % of activated DMSO | 90.15 % of activated DMSO | 444.44 % of activated DMSO | 47.37 % of activated DMSO | – | 72.27 % of activated DMSO | did not inhibit | 93.55 % of activated DMSO | – | – | 72.41 % of activated DMSO | –
CN1CC[C@H](c2c(O)cc(O)c3c(=O)cc(-c4ccccc4Cl)oc23)[C@H](O)C1 [alvocidib] | 81.21 % of activated DMSO | – | – | 504.5 % of activated DMSO | 0 % of activated DMSO | 41.86 % of activated DMSO | – | – | 81.72 % of activated DMSO | 155.63 % of activated DMSO | – | – | –
pladienolide B | – | 7.61 % of activated DMSO | 15.15 % of activated DMSO | 63.66 % of activated DMSO | 0 % of activated DMSO | 0 % of activated DMSO | 0 % of activated DMSO | 3.8% | – | – | 0 % of activated DMSO | 17.33 % of activated DMSO | –
O=c1c(O)c(-c2ccc(O)c(O)c2)oc2cc(O)cc(O)c12 [quercetin] | 315.15 % of activated DMSO | – | 85.4 % of activated DMSO | 20.42 % of activated DMSO | 8.6 % of activated DMSO | 4.65 % of activated DMSO | 9.09 % of activated DMSO | – | 134.41 % of activated DMSO | – | – | – | –
COc1ccc(-c2cc(=O)c3c(O)cc(O)c(-c4cc(-c5cc(=O)c6c(O)cc(O)cc6o5)ccc4OC)c3o2)cc1 [isoginkgetin] | 303.03 % of activated DMSO | – | – | 8.41 % of activated DMSO | 63.16 % of activated DMSO | 0 % of activated DMSO | – | – | 4.84 % of activated DMSO | 39.4 % of activated DMSO | – | – | –
N#CC[C@H](C1CCCC1)n1cc(-c2ncnc3[nH]ccc23)cn1 [ruxolitinib] | – | 0 % of activated DMSO | 0.53 % of activated DMSO | 0 % of activated DMSO | 0 % of activated DMSO | 5.81 % of activated DMSO | 0 % of activated DMSO | – | – | – | 0 % of activated DMSO | 6.55 % of activated DMSO | –
